Experimental data from ChEMBL document CHEMBL1201862, “PubChem BioAssay data set” (2004).
Calls of active or inactive are those of the source.

Key:
[1] = target: T1, Heat shock factor protein 1 (Mus musculus, UniProt P38532); assay: inhibition of MG132-induced HSE-luciferase signal, confirmation, cell-based, NIH3T3, luminescence, dose retest (AID 2382); format: functional;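 also: NIH3T3 fibroblasts with HSF1-driven luciferase reporter stressed by proteasome inhibitor MG132; luminescence from HSF1-driven luciferase expression after 8 hours of MG132 stress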
T1 sequence (P38532 whole entry): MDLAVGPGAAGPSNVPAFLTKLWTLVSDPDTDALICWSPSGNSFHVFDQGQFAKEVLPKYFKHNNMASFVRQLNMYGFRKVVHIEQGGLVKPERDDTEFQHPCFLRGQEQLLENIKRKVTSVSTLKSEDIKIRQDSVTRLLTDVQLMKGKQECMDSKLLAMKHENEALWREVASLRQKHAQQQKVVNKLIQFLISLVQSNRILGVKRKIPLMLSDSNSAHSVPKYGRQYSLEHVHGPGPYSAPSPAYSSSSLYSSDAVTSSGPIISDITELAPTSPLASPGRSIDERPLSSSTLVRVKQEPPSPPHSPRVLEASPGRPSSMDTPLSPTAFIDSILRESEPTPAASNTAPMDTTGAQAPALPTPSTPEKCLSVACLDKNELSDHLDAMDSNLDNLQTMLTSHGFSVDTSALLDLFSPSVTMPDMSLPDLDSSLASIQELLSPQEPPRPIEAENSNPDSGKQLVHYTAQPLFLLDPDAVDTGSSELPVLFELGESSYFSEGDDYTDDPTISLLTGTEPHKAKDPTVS

[2] = growth suppression of PTEN-null colon cells, dose response, cell-based, HCT116 PTEN knockout (AID 1047); format: functional;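 also: HCT116 colon tumor cells with PTEN knocked out; cells exposed to compound for 60 hours before readout; potency for loss of cell viability measured by luminescence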
[3] = growth suppression of beta-catenin-knockout colon cells, dose response, cell-based, HCT116, human colon tumor (AID 1045); format: functional;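 also: HCT116 colon tumor cells with beta catenin knocked out; cells exposed to compound for 60 hours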
Large T antigen = Large T antigen (Simian virus 40, UniProt P03070); format: functional, Betapolyomavirus macacae;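 also: Confirmatory-stage PubChem screen for compounds that inhibit SV40 T antigen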
Large T antigen, sequence (P03070 whole entry): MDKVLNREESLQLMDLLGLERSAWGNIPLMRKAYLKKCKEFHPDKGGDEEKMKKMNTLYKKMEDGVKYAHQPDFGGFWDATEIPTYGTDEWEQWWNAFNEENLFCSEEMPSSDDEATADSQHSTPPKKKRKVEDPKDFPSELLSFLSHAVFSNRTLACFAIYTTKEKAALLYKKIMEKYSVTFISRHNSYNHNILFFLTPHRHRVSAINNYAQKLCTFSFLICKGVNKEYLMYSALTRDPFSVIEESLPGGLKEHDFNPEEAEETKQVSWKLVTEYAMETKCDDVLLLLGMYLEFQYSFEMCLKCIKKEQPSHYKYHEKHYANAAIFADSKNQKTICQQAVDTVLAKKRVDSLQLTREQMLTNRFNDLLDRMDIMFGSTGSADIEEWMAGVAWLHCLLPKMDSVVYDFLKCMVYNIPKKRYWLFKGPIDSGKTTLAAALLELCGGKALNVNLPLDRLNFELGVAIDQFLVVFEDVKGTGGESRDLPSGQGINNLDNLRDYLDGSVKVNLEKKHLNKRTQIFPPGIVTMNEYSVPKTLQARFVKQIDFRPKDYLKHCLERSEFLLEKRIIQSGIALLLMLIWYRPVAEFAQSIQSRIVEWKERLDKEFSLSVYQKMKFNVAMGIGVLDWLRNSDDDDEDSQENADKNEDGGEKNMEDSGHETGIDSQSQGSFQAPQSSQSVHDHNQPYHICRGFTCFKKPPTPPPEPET

[4] = Luminescence Cell-Based Dose Retest to Confirm Inhibitors of Cancer Stem Cells. [Related pubchem assays (depositor defined):AID2717, AID2721]; format: functional; conditions: Homo sapiens
[5] = inhibitors of firefly luciferase expression or activity, dose response, H4 neuroglioma cells, luminescence (AID 1990); format: functional, cell-based
[6] = Luminescence Cell-Based Dose Response HTS to Identify Inhibitors of 5'UTR Stem-Loop Driven Prion Protein mRNA Translation in H4 Neuroglioblastoma Cells. [Related pubchem assays: 1827 (Project Summary), 1813 (Primary HTS)]; format: functional
[7] = inhibitors of SNCA 5'UTR-driven reporter translation, confirmation, H4 neuroglioma cells, luminescence (AID 1988); format: functional, cell-based
[8] = target: T2, Rac GTPase-activating protein 1 (Homo sapiens, UniProt Q9H0H5); assay: MgcRacGAP GTPase-activating activity inhibitors, confirmation, biochemical, ADP Hunter fluorescence, primary and confirmatory (AID 624330); format: functional
T2 sequence (Q9H0H5 whole entry): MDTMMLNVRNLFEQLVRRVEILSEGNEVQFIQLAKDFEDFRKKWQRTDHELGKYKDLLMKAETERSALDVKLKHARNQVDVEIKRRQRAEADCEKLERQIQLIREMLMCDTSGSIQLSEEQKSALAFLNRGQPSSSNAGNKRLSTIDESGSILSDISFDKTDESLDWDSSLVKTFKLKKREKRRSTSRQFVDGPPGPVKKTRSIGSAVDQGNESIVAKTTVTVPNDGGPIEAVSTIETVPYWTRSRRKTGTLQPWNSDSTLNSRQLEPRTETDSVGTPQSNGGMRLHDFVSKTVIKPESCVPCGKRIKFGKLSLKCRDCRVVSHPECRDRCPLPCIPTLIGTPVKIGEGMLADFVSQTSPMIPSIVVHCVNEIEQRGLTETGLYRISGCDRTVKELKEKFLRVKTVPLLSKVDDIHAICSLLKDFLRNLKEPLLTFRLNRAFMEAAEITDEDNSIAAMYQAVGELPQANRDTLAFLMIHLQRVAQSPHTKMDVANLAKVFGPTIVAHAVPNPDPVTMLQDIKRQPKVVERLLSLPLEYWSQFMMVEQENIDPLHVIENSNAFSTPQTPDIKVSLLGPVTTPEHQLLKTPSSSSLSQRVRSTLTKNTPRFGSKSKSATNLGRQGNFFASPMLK

[9] = target: T3, Corticotropin-releasing factor receptor 2/Corticotropin-releasing factor-binding protein (Homo sapiens, UniProt P24387+Q13324); assay: Dose Response confirmation of uHTS hits for small molecule antagonists of the CRF-binding protein and CRF-R2 receptor complex.; format: functional; conditions: read-out: IC50_Mean
T3 sequence (Q13324 whole entry): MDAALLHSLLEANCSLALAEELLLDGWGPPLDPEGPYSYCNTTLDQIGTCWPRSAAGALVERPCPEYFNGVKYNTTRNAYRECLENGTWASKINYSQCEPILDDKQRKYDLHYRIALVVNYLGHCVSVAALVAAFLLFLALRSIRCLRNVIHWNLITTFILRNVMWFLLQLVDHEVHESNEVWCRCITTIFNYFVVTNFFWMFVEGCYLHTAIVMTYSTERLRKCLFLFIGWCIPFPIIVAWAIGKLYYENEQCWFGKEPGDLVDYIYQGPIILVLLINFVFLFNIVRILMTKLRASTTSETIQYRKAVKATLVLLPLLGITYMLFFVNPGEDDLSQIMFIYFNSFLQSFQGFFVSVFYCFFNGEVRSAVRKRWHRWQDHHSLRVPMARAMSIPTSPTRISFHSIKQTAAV
T3 sequence (P24387 whole entry): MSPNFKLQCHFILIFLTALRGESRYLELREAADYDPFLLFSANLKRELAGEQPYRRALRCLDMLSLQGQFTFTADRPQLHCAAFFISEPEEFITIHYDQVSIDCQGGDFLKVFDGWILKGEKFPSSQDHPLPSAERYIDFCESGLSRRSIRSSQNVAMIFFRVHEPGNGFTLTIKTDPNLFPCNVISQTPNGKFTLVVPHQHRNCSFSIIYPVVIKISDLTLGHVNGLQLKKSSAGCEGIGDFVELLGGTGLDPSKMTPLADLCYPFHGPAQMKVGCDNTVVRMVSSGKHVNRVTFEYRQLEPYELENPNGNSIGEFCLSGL

[10] = target: T3, Corticotropin-releasing factor receptor 2/Corticotropin-releasing factor-binding protein; assay: activators of CRF receptor 2 with binding protein – uHTS hits, confirmation (AID 602473); format: functional; conditions: read-out: EC50_Mean
Cytochrome P450 1A2 = target: T4, Cytochrome P450 1A2 (Homo sapiens, UniProt P05177);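 also: PubChem cytochrome P450 panel assay, CYP1A2 panel member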
T4 sequence (P05177 whole entry): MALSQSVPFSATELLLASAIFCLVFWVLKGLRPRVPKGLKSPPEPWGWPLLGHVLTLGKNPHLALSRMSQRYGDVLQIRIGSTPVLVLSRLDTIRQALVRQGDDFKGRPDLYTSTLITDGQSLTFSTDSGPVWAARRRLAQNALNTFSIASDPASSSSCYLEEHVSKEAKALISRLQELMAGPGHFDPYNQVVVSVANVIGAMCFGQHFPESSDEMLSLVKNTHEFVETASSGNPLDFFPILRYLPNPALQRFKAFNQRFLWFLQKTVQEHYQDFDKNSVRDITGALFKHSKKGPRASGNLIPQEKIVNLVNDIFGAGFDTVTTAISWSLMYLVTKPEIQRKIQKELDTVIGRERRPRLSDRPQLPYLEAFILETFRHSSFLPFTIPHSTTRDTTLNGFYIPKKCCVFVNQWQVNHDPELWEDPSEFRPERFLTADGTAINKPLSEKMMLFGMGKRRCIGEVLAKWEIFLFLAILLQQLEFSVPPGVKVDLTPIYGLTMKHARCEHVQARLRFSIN

Cytochrome P450 2C9 = Cytochrome P450 2C9 (Homo sapiens, UniProt P11712)
Cytochrome P450 2C9, sequence (P11712 whole entry): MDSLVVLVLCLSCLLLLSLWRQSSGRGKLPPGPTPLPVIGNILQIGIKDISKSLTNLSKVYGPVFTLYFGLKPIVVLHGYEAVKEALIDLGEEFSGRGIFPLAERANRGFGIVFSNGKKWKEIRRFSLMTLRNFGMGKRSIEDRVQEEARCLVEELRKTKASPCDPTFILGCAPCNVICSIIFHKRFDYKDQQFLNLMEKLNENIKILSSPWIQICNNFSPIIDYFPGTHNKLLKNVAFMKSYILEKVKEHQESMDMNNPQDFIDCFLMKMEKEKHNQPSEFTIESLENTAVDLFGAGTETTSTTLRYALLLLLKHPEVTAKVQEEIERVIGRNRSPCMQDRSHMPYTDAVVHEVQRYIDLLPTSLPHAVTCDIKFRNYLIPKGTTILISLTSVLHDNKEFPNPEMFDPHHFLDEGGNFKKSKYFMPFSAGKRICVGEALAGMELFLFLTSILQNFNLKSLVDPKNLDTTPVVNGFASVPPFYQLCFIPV

Cytochrome P450 2C19 = Cytochrome P450 2C19 (Homo sapiens, UniProt P33261); assay: Cytochrome panel assay with activity outcomes. Panel member name: p450-cyp2c19 Compounds with AC50 equal or less than 10 uM are considered active; format: functional; conditions: read-out: AC50
Cytochrome P450 2C19, sequence (P33261 whole entry): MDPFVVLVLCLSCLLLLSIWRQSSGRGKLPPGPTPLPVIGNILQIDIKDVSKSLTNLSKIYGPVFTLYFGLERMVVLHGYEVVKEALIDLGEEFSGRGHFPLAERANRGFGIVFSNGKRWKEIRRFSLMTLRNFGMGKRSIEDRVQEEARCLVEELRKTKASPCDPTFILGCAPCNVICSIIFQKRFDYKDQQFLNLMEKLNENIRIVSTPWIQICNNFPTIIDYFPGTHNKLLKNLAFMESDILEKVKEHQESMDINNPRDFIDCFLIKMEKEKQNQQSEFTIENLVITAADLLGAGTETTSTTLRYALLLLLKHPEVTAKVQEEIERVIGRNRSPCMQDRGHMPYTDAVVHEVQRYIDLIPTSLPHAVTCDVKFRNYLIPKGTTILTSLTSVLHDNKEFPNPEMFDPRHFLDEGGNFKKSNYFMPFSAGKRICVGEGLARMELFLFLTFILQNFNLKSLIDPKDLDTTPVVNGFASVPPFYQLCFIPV

[11] = target: T1, Heat shock factor protein 1; assay: HSF1 potentiators in luciferase reporter cells, confirmation, cell-based, NIH3T3, luminescence, dose retest (AID 435004); format: functional;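 also: stress induced by proteasome inhibitor MG132 added 30 min after compound; luciferase reporter driven by HSF1 response element in NIH3T3 cells; actives raise luminescence as potentiators of the MG132 stress response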
[12] = Luminescence Cell-Based Dose Confirmation HTS to Identify Activators of 5'UTR Stem-Loop Driven Alpha-Synuclein mRNA Translation in H4 Neuroglioblastoma Cells. [Related pubchem assays: 1829 (Project Summary), 1814 (Primary HTS)]; format: functional
[13] = Luminescence Cell-Based Dose Response HTS to Identify Activators of Luciferase Translation or Activity in H4 […] Cells. [Related pubchem assays: 1829 (Project Summary), 1814 (Primary HTS)]; format: functional
H4 = assay: Luminescence Cell-Based Dose Response HTS to Identify Activators of 5'UTR Stem-Loop Driven Prion Protein mRNA Translation in H4 Neuroglioblastoma Cells. [Related pubchem assays: 1829 (Project Summary), 1814 (Primary HTS)]; format: functional; conditions: Homo sapiens
INS1 = assay: beta cell apoptosis inhibitors, cytokine rescue, dose response, luminescence, retest (AID 449756); format: functional, cell-based; conditions: Rattus norvegicus;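 also: cell death triggered by IL-1 beta plus TNF-alpha plus IFN-gamma mixture; protective hits raise ATP signal compared with cytokine alone wells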

In the case of `Cc1cccc2sc(NNC(=O)C3COc4ccccc4O3)nc12` (stereo unspecified), the EC50 [1] is reported as > 195 µM (not active), the EC50 [2] is reported as 38.9 µM (active) and the EC50 [3] is reported as 36.7 µM (active).
In the case of `O=C(c1ccc([N+](=O)[O-])cc1)N1CCN(c2cccc3[nH]ccc23)CC1`, the IC50 (Large T antigen) is reported as 25.9 µM (active).
In the case of `CN(CC(=O)Nc1ccc(Cl)c(Cl)c1)C(=O)C12CC3CC(CC(C3)C1)C2`, the AC50 [4] is reported as 5.44 µM (active).
For `COc1ccc(C2=Nn3c(nnc3-c3ccncc3)SC2)cc1OC`, the EC50 [5] was 12.4 µM (active), the EC50 [6] was 14.2 µM (active) and the EC50 [7] was 50.8 µM (active). The EC50 [2] was 19.7 µM (active) and the EC50 [3] was 336 µM (active).
With `Oc1ccc(N2CCN(C(=S)NCCc3ccccc3)CC2)cc1` the IC50 (Large T antigen) was 8.73 µM (active) and the IC50 [8] was 26.1 µM (active).
With `CCOc1ccc(NCc2nnc(SCC(=O)Nc3cc(C)on3)n2-c2ccc(OC)cc2)cc1` the EC50 [1] was > 195 µM (not active) and the IC50 (Large T antigen) was 30.1 µM (active).
In the case of `COc1cc(/C=C(\C#N)C(=O)N2CCCCC2)ccc1O`, the IC50 (Large T antigen) is reported as 13 µM (active).
For `C=CCOc1cccc(CNc2ccc3[nH]c(O)nc3c2)c1`, the IC50 (Large T antigen) was 14.4 µM (active), the IC50 [9] was > 47.1 µM (inactive) and the EC50 [10] was > 53 µM (inactive).
With `O=c1c(Cl)c(NCc2ccccc2Cl)cnn1C12CC3CC(CC(C3)C1)C2` the AC50 [4] was 0.508 µM (active).
With `COc1ccccc1CN(Cc1cc2cc(C)cc(C)c2nc1O)Cc1nnnn1CC1CCCO1` (stereo unspecified) the EC50 [2] was 44.9 µM (active), the EC50 [3] was 54.9 µM (active) and the AC50 (Cytochrome P450 1A2) was 20 µM (inconclusive). For the same compound, the AC50 (Cytochrome P450 2C9) was 14.1 µM (inconclusive).
For `Cc1ccc(CNc2ccc3c(c2)ncn3C(C)C)cc1`, the IC50 (Large T antigen) was 42.6 µM (active).
With `Cc1ccc(NC(=O)/C(=C\c2cccc([N+](=O)[O-])c2)NC(=O)c2cccs2)cc1` the EC50 [2] was 22.8 µM (active), the EC50 [3] was 24.1 µM (active) and the AC50 (Cytochrome P450 2C19) was 17.8 µM (inconclusive). The AC50 (Cytochrome P450 2C9) was 39.8 µM (inconclusive).
With `CCCCn1c(-c2cccc(C)c2)nc2cc3nc(O)c(C(C)C)nc3cc21` the AC50 [4] was 6.63 µM (active).
In the case of `CCOc1ccc2ncc(S(=O)(=O)c3ccc(C)cc3)c(N3CCC4(CC3)OCCO4)c2c1`, the EC50 [2] is reported as 40.5 µM (active), the EC50 [3] is reported as 74 µM (active) and the EC50 [11] is reported as > 260 µM (inactive).
For `CCCc1ccc(-c2cc(NC(=O)CSc3n[nH]c(N)n3)n(-c3ccccc3)n2)cc1`, the EC50 [12] was 7.46 µM (active), the EC50 [13] was 6.51 µM (active) and the EC50 (H4) was 53.5 µM (active). The AC50 [4] was 4.18 µM (active).
With `Cc1cc2nc(-c3ccc(SCC(=O)N4CCc5ccccc54)nc3)[nH]c2cc1C` the EC50 [2] was 6.92 µM (active), the EC50 [3] was 7.55 µM (active) and the AC50 (Cytochrome P450 1A2) was 3.16 µM (inconclusive).
In the case of `O=C(Nc1nccs1)c1ccc(COc2ccccc2Br)o1`, the AC50 [4] is reported as 3.14 µM (active).
In the case of `CCCc1cc(-c2[nH]nc(C(=O)OCC)c2-c2cscn2)c(O)cc1O`, the IC50 (Large T antigen) is reported as 23.4 µM (active).
For `NNC(=O)C(=O)Nc1ccc(O)cc1`, the IC50 (Large T antigen) was 9.75 µM (active).
With `COC(=O)C1=C(c2cccc(C#N)c2)C[C@@H]2CC[C@H]1N2C(=O)NC1Cc2ccccc2C1` the AC50 [4] was > 195 µM (inactive).
In the case of `Cc1cc(NC(=O)c2cc(-c3ccncc3)nc3ccccc23)ccc1Br`, the AC50 [4] is reported as 4.23 µM (active).
With `Nc1ccccc1/N=C/c1ccc(-c2cccc(Cl)c2)o1` the AC50 [4] was 3.68 µM (active).
With `Cc1cc(SCC(=O)N/N=C/c2ccc(O)c(O)c2)nc2ccccc12` the IC50 (Large T antigen) was 6.59 µM (active).
In the case of `CCCCCCSc1cccc(-c2nc3ccccn3c2NCc2ccccc2)c1`, the AC50 [4] is reported as 6.43 µM (active) and the AC50 (INS1) is reported as 7.57 µM (active).
In the case of `COc1cc(SC#N)ccc1/N=C/c1c(C)nn(-c2cccc3ccccc23)c1O`, the IC50 (Large T antigen) is reported as 14.1 µM (active) and the EC50 [3] is reported as 93.7 µM (active).
In the case of `O=C1C2C3C=CC(C4CC34)C2C(=O)N1/N=C/c1ccc(-c2ccc(F)cc2[N+](=O)[O-])o1` (stereo unspecified), the AC50 [4] is reported as 1.08 µM (active).
For `COc1cc(/C=N/NC(=O)C2=NNC(=O)C2C)ccc1O` (stereo unspecified), the IC50 (Large T antigen) was 26.7 µM (active) and the IC50 [8] was 76.3 µM (active).
For `O=C(CSCc1cccc(Br)c1)N/N=C/c1ccc2c(c1)OCO2`, the AC50 [4] was 3 µM (active).
For `Nc1ccc(O)c(C(=O)O)c1` [MESALAMINE], the IC50 (Large T antigen) was 19.1 µM (active) and the AC50 (Cytochrome P450 2C9) was 12.6 µM (inconclusive).
